What all share (format): biochemical
In test [1] the target is T1, μ-opioid receptor (Homo sapiens (Human), UniProt P35372). Kind of test: μ-opioid receptor [35S]GTPγS functional assay, U-2 OS cells. As to conditions: for Emax: relative to DAMGO, U-2 OS cells. The protocol:
(§1) μ-Opioid Receptor Functional Assay Procedures: [^35S]GTPγS functional assays were conducted using freshly thawed μ-receptor membranes prepared in-house from a cell line expressing recombinant μ opioid receptor in a HEK-293, CHO or U-2 OS cell background, or purchased from a commercial source (Perkin Elmer, Shelton, Conn.; or DiscovRx, Fremont, Calif.). Assay reactions were prepared by sequentially adding the following reagents to binding buffer (100 mM NaCl, 10 mM MgCl2, 20 mM HEPES, pH 7.4) on ice (final concentrations indicated): membrane protein (0.026 mg/mL), saponin ([…]), GDP ([…]) and [^35S]GTPγS (0.20 nM; Perkin Elmer, Shelton, Conn.). The prepared membrane solution (190 μl/well) was transferred to 96-shallow well polypropylene plates containing 10 μl of 20× concentrated stock solutions of the agonist [D-Ala^2, N-methyl-Phe^4 Gly-ol^5]-enkephalin (DAMGO) prepared in dimethyl sulfoxide (DMSO). Plates were incubated for 30 min at about 25° C. with shaking. Reactions were terminated by rapid filtration onto 96-well Unifilter GF/B filter plates (Perkin Elmer, Shelton, Conn.) using a 96-well tissue harvester (Perkin Elmer, Shelton, Conn.) followed by three filtration washes with 200 μl of ice-cold wash buffer (10 mM NaH2PO4, 10 mM Na2HPO4, pH 7.4). Filter plates were subsequently dried at 50° C. for 2-3 hours. BetaScint scintillation cocktail (Perkin Elmer, Shelton, Conn.) was added (50 μl/well) and plates were counted using a Packard Top-Count for 1 min/well. Data were analyzed using the sigmoidal dose-response curve fitting functions in GraphPad PRISM v. 3.0, or an in-house function for non-linear, sigmoidal dose-response curve-fitting.
(§2) μ-Opioid Receptor Functional Data: μ GTP EC50 is the concentration of a compound providing 50% of the maximal response for the compound at a μ-opioid receptor.
(§3) μ GTP Emax (%) is the maximal effect elicited by a compound relative to the effect elicited by DAMGO, a standard μ agonist. Generally, the μ GTP Emax (%) value measures the efficacy of a compound to treat or prevent pain or other Conditions.
(§4) The following TABLE 3 provides results on the activity response of certain Compounds of the Invention at the μ- and κ-opioid receptors determined as described above using U-2 OS cells.
For orientation: GTPγS is a poorly hydrolysed GTP analogue; its binding reports G protein activation.

The target of another test is κ-opioid receptor (Homo sapiens (Human), UniProt P41145). The test is described as follows: κ-opioid receptor [35S]GTPγS functional assay, U-2 OS cells. As to conditions: for Emax: relative to U69,593, U-2 OS cells. The method, then:
κ-Opioid Receptor Functional Assay Procedures: Functional [^35S]GTPγS binding assays were conducted as follows. κ opioid receptor membrane solution was prepared by sequentially adding final concentrations of 0.026 μg/μl κ membrane protein (in-house), 10 μg/mL saponin, 3 μM GDP and 0.20 nM [^35S]GTPγS to binding buffer (100 mM NaCl, 10 mM MgCl2, 20 mM HEPES, pH 7.4) on ice. The prepared membrane solution (190 μl/well) was transferred to 96-shallow well polypropylene plates containing 10 μl of 20× concentrated stock solutions of agonist prepared in DMSO. Plates were incubated for 30 min at a temperature of about 25° C. with shaking. Reactions were terminated by rapid filtration onto 96-well Unifilter GF/B filter plates (Perkin Elmer, Shelton, Conn.) using a 96-well tissue harvester (Packard) and followed by three filtration washes with 200 μl ice-cold binding buffer (10 mM NaH2PO4, 10 mM Na2HPO4, pH 7.4). Filter plates were subsequently dried at 50° C. for 2-3 hours. Fifty μl/well scintillation cocktail (Perkin Elmer, Shelton, Conn.) was added and plates were counted in a Packard Top-Count for 1 min/well.
κ-Opioid Receptor Functional Data: κ GTP EC50 is the concentration of a compound providing 50% of the maximal response for the compound at a κ receptor.
κ GTP Emax (%) is the maximal effect elicited by a compound relative to the effect elicited by U69,593.
as §4

Test [2] has as its target T1, μ-opioid receptor. Kind of test: μ-opioid receptor [35S]GTPγS functional assay, HEK-293 or CHO cells. The method, then:
as §1, §2, §3
In TABLE 2, activity response of certain Compounds of the Invention to the μ-, δ- and κ-opioid receptors was determined as described above for functional assays using HEK-293 or CHO cells.

[3] abbreviates: relative to DAMGO, HEK-293 or CHO cells.

Usually EC50 stands for the concentration needed to bring the measured effect to its halfway point. As usually defined, the Emax is the size of the effect at its maximum, as opposed to the concentration needed. As to `CN1CC[C@]23Cc4[nH]c(=O)c(C(=O)O)cc4C[C@@]2(O)[C@H]1Cc1ccc(O)cc13` [Compound 41, (6R,6aS,12aR)-2,6a-dihydroxy-15-methyl-10-oxo-6,6a,7,10,11,12-hexahydro-5H-6,12a-(epiminoethano)naphtho[2,1-g]quinoline-9-carboxylic acid], on μ-opioid receptor [1], a half-maximal response (EC50) required 111 ± 8.9 nM and the Emax is 58.2 ± 2.32%. For the same molecule, at κ-opioid receptor, the EC50 came out at 568 ± 33.3 nM and the Emax amounted to 70 ± 4.58%.
The matching figures for `CN1CC[C@]23Cc4[nH]c(=O)c(C(=O)NCC5CCCCC5)cc4C[C@@]2(O)[C@H]1Cc1ccc(O)cc13` [Compound 44, (6R,6aS,12aR)—N-(cyclohexylmethyl)-2,6a-dihydroxy-15-methyl-10-oxo-6,6a,7,10,11,12-hexahydro-5H-6,12a-(epiminoethano)naphtho[2,1-g]quinoline-9-carboxamide]: 439 ± 27.4 nM, 88.3 ± 0.88%, 92.5 ± 24.2 nM and 67 ± 1%.
The like results for `C[C@H](NC(=O)c1cc2c([nH]c1=O)C[C@]13CCN(C)[C@H](Cc4ccc(O)cc41)[C@]3(O)C2)C(N)=O` [Compound 50, (6R,6aS,12R)—N—((S)-1-amino-1-oxopropan-2-yl)-26a-dihydroxy-15-methyl-10-oxo-6,6a,7,10,11,12-hexahydro-5H-6,12a-(epiminoethano)naphtho[2.1-g]quinoline-9-carboxamide] were, in that order, 204 ± 11.3 nM, 95 ± 1.15%, 1070 ± 157 nM and 54 ± 2.74%.
With `CN1CC[C@]23Cc4[nH]c(=O)c(C(=O)NCc5ccccc5)cc4C[C@@]2(O)[C@H]1Cc1ccc(O)cc13` [Compound 45, (6R,6aS,12aR)—N-benzyl-2,6a-dihydroxy-15-methyl-10-oxo-6,6a,7,10,11,12-hexahydro-5H-6,12a-(epiminoethano)naphtho[2,1-g]quinoline-9-carboxamide], at μ-opioid receptor [1], a half-maximal effect (EC50) was put at 306 ± 25.2 nM and the Emax is 90 ± 1.53%. At κ-opioid receptor, the EC50 is 128 ± 8.96 nM and the Emax was 94.3 ± 5.61%.
`CN(C(=O)c1cc2c([nH]c1=O)C[C@]13CCN(CC4CC4)[C@H](Cc4ccc(O)cc41)[C@@H]3C2)C1CCCCC1` [Compound 63, (6R,6aR,12aS)—N-cyclohexyl-15-(cyclopropylmethyl)-2-hydroxy-N-methyl-10-oxo-6,6a,7,10,11,12-hexahydro-5H-6,12a-(epiminoethano)naphtho[2,1-g]quinoline-9-carboxamide] came in with an EC50 on μ-opioid receptor [2] of over 20 µM. For the same molecule, on μ-opioid receptor [2] (setting [3]), the Emax is -1%.
On to `CC(C)C[C@H](NC(=O)c1cc2c([nH]c1=O)C[C@]13CCN(C)[C@H](Cc4ccc(O)cc41)[C@]3(O)C2)C(N)=O` [Compound 52, (6R,6aS,12R)—N—((S)-1-amino-4-methyl-1-oxopentan-2-yl)-2,6a-dihydroxy-15-methyl-10-oxo-6,6a,7,10,11,12-hexahydro-5H-6,12a-(epiminoethano)naphtho[2.1-g]quinoline-9-carboxamide], for which the EC50 was 244 ± 10.8 nM on μ-opioid receptor [1] and 3790 ± 1570 nM on κ-opioid receptor. Moreover, the Emax at μ-opioid receptor [1] is 97.7 ± 1.45%; at κ-opioid receptor, 28.8 ± 2.17%.
Consider `CN1CC[C@]23Cc4[nH]c(=O)c(C(=O)N5CCOCC5)cc4C[C@@]2(O)[C@H]1Cc1ccc(O)cc13` [Compound 47, (6R,6aS,12aR)-2,6a-dihydroxy-15-methyl-9-(morpholine-4-carbonyl)-6a,7,11,12-tetrahydro-5H-6,12a-(epiminoethano)naphtho[2,1-g]quinolin-10(6H)-one], for which, at μ-opioid receptor [1], it took 156 ± 12.7 nM to reach a half-maximal effect (EC50) and the Emax was 82 ± 1.73%. On κ-opioid receptor, a half-maximal effect (EC50) was put at 511 ± 139 nM and the Emax was found to be 50 ± 2.74%.
In turn, `O=C(c1cc2c([nH]c1=O)C[C@]13CCN(CC4CC4)[C@H](Cc4ccc(O)cc41)[C@@H]3C2)N1CCS(=O)(=O)CC1` [Compound 60, (6R,6aR,12aS)-15-(cyclopropylmethyl)-9-(1,1-dioxidothiomorpholine-4-carbonyl)-2-hydroxy-6,6a,7,12-tetrahydro-5H-6,12a-(epiminoethano)naphtho[2,1-g]quinolin-10(11H)-one] showed an EC50 at μ-opioid receptor [2] of over 20 µM. Further, the Emax at μ-opioid receptor [2] (setting [3]) is -1 ± 1%.
Turning to `O=C(c1ccccc1)c1cc2c([nH]c1=O)C[C@]13CCN(CC4CC4)[C@H](Cc4ccc(O)cc41)[C@]3(O)C2` [Compound 59, (6R,6aS,12R)-9-benzoyl-15-(cyclopropylmethyl)-2,6a-dihydroxy-6,6a,7,12-tetrahydro-5H-6,12a-(epiminoethano)naphtho[2.1-g]quinolin-10(11H)-one], on μ-opioid receptor [1], the concentration for a half-maximal effect (EC50) is over 20000 nM and the Emax stood at 2.5%. Further, on κ-opioid receptor, the EC50 was 17900 ± 7550 nM and the Emax turned out to be 16.8 ± 1.44%.
Turning to `NC(=O)c1cc2c([nH]c1=O)C[C@]13CCN(CCF)[C@H](Cc4ccc(O)cc41)[C@]3(O)C2` [Compound 35, (6R,6aS,12aR)-15-(2-fluoroethyl)-2,6a-dihydroxy-10-oxo-6,6a,7,10,11,12-hexahydro-5H-6,12a-(epiminoethano)naphtho[2,1-g]quinoline-9-carboxamide], at μ-opioid receptor [1], the EC50 is over 20000 nM and the Emax is 2.5%. For the same molecule, at κ-opioid receptor, a half-maximal response (EC50) required 93.7 ± 27.7 nM and the Emax is 66 ± 1.53%.
Turning to `O=C(N[C@@H]1c2ccccc2C[C@@H]1O)c1cc2c([nH]c1=O)C[C@]13CCN(CC4CC4)[C@H](Cc4ccc(O)cc41)[C@@H]3C2` [Compound 61, (6R,6aR,12aS)-15-(cyclopropylmethyl)-2-hydroxy-N-((1R,2S)-2-hydroxy-2,3-dihydro-1H-inden-1-yl)-10-oxo-6,6a,7,10,11,12-hexahydro-5H-6,12a-(epiminoethano)naphtho[2,1-g]quinoline-9-carboxamide], on μ-opioid receptor [2], the EC50 is over 20 µM. The Emax on μ-opioid receptor [2] (setting [3]) was -1%.
At μ-opioid receptor [2], `O=C(N[C@H]1c2ccccc2C[C@H]1O)c1cc2c([nH]c1=O)C[C@]13CCN(CC4CC4)[C@H](Cc4ccc(O)cc41)[C@@H]3C2` [Compound 62, (6R,6aR,12aS)-15-(cyclopropylmethyl)-2-hydroxy-N-((1S,2R)-2-hydroxy-2,3-dihydro-1H-inden-1-yl)-10-oxo-6,6a,7,10,11,12-hexahydro-5H-6,12a-(epiminoethano)naphtho[2,1-g]quinoline-9-carboxamide] returned an EC50 of over 20 µM. At μ-opioid receptor [2] (setting [3]), the Emax was -1%.
For the molecule `O=C(c1cc2c([nH]c1=O)C[C@]13CCN(CC4CC4)[C@H](Cc4ccc(O)cc41)[C@@H]3C2)N1[C@@H]2CC[C@H]1C[C@@H](O)C2` [Compound 65, (6R,6aR,12aS)-15-(cyclopropylmethyl)-2-hydroxy-9-((1R,R,5S)-3-hydroxy-8-azabicyclo[3.2.1]octane-8-carbonyl)-6,6a,7,12-tetrahydro-5H-6,12a-(epiminoethano)naphtho[2,1-g]quinolin-10(11H)-one], at μ-opioid receptor [2] (GTPγS, HEK-293 or CHO cells, bound given in μM, read-out: μ EC50), the EC50 was over 20 µM. Besides, the “μ Emax (%)” value on μ-opioid receptor [2] (setting [3]) stood at 4.00%.
On μ-opioid receptor [2], `O=C(c1cc2c([nH]c1=O)C[C@]13CCN(CC4CC4)[C@H](Cc4ccc(O)cc41)[C@@H]3C2)N1Cc2ccccc2C1` [Compound 64, (6R,6aR,12aS)-15-(cyclopropylmethyl)-2-hydroxy-9-(isoindoline-2-carbonyl)-6,6a,7,12-tetrahydro-5H-6,12a-(epiminoethano)naphtho[2,1-g]quinolin-10(11H)-one] showed an EC50 of over 20 µM. At μ-opioid receptor [2] (setting [3]), the Emax came out at 3.5%.
